Converted amounts (≈) assume the structure as drawn. Where two headings read alike, the source gives them in different places.
Key:
[1] = test system: Enterobacter spp. (n = 102); assay type: cell-based, Enterobacter aerogenes and E. cloacae; conditions: Enterobacter spp. (n = 102), CLSI breakpoints, colistin EUCAST
Experimental: (§1) The clinical isolates were obtained from USA hospitals. […] Plates were incubated at 35° C. overnight.

[2] = test system: Escherichia coli (n = 101); assay type: cell-based; conditions: Escherichia coli (n = 101), CLSI breakpoints, colistin EUCAST
Experimental: as §1

[3] = test system: Acinetobacter spp. (n = 104); assay type: cell-based; conditions: Acinetobacter spp. (n = 104), CLSI breakpoints
Experimental: as §1

[4] = test system: Pseudomonas aeruginosa (n = 109); assay type: cell-based; conditions: Pseudomonas aeruginosa (n = 109), CLSI breakpoints
Experimental: as §1

[5] = test system: Staphylococcus aureus (n = 104); experiment: microbe, parasite or virus in culture; assay type: cell-based; conditions: Staphylococcus aureus (n = 104); for % R (isolates resistant): CLSI breakpoints
Experimental: as §1

[6] = test system: Enterococcus faecium (n = 104); experiment: microbe, parasite or virus in culture; conditions: Enterococcus faecium (n = 104), CLSI breakpoints
Experimental: Comparator antibiotics were supplied by Micromyx, and stock solutions were prepared on the first day of testing using solvents recommended by CLSI (1). Stock solutions of all compounds were made at 40× the final testing concentration and stored at −80° C. prior to testing. Information regarding compound source, catalog and lot number, testing concentrations and drug diluent for the comparators and test agent are detailed below in Table 3.
The test organisms evaluated in this study consisted of clinical isolates from the Micromyx Repository and reference isolates from the American Type Culture Collection (ATCC; Manassas, Va.). The clinical isolates were obtained from USA hospitals. Upon initial receipt at Micromyx, the organisms were sub-cultured onto an appropriate agar medium. Following incubation, colonies were harvested from these plates and cell suspensions prepared and frozen at −80° C. with a cryoprotectant. Prior to testing, the isolates were streaked from frozen vials onto Trypticase Soy Agar with 5% sheep blood (Becton Dickenson [BD]; Sparks, MD; Lot Nos. 7173618, 7166759, 7208688, 72144895, 7228505 and Remel Lenexa, Kans. Lot No. 212574). Plates were incubated at 35° C. overnight.
Mueller Hinton II broth (MHB II; BD; Lot Nos. 6258541 and 7143896) was used for MIC testing of aerobic organisms.
(§2) MIC values were determined using a broth microdilution procedure described by CLSI (1, 3). Automated liquid handlers (Multidrop 384, Labsystems, Helsinki, Finland; Biomek 2000 and Biomek FX, Beckman Coulter, Fullerton Calif.) were used to conduct serial dilutions and liquid transfers.
To prepare the drug mother plates, which would provide the serial drug dilutions for the replicate daughter plates, the wells of columns 2-12 of standard 96-well microdilution plates (Costar 3795) were filled with 150 µl of the designated diluent for each row of drug. The test articles and comparator compounds ([…] at 40× the highest concentration to be tested) were dispensed into the appropriate wells in column 1. The Biomek 2000 was then used to make 2-fold serial dilutions in the mother plates from column 1 through column 11. The wells of Column 12 contained no drug and served as the organism growth control wells for the assay.
(§3) The daughter plates were loaded with 185 g L per well of MHB II using the Multidrop 384. The daughter plates were completed on the Biomek FX instrument which transferred 5 µL of drug solution from each well of a mother plate to the corresponding well of each daughter plate in a single step. A standardized inoculum of each test organism was prepared per CLSI methods (1). The inoculum for each organism was dispensed into sterile reservoirs divided by length (Beckman Coulter), and the Biomek 2000 was used to inoculate the plates. Daughter plates were placed on the Biomek 2000 work surface in reverse orientation so that inoculation took place from low to high drug concentration.
(§4) Plates were stacked 3-4 high, covered with a lid on the top plate, placed in plastic bags, and incubated at 35° C. for 16 to 20 hrs. Following incubation, the microplates were removed from the incubator and viewed from the bottom using a plate viewer. […] The MIC was read and recorded as the lowest concentration of drug that inhibited visible growth of the organism.
Clinical breakpoints to determine percent resistance within a given organism group were obtained from CLSI (3), with the exception of colistin for K. pneumoniae, Enterobacter spp., and E. coli, which are only available from EUCAST.

[7] = test system: Acinetobacter baumannii ATCC BAA-1797 (MDR); experiment: microbe, parasite or virus in culture; assay type: cell-based; conditions: ATCCBAA1797; Acinetobacter baumannii ATCC BAA-1797 (MDR); read-out: MIC
Experimental: Each peptide was formulated in PBS buffer prior to testing. Peptides of SEQ ID NO:5 and SEQ ID NO:8 were brought up in 100% DMSO with 0.002% polysorbate-80 at 1.28 mg/mL (40× the highest final test concentration of 32 mcg/mL). Final test concentration of DMSO was 2.5% in the assay at the first dilution for those two compounds.
Mueller Hinton II broth (MHB II; BD; Lot Nos. 6258541 and 7143896) was used for MIC testing of aerobic organisms. 0.002% polysorbate 80 (P80) was added to the test medium.
as §2
To prepare the drug mother plates, which would provide the serial peptide dilutions for the replicate daughter plates, the wells of columns 2-12 of standard 96-well microdilution plates (Costar 3795) were filled with 150 µl of the designated diluent for each row of peptide.
The test articles and comparator compounds ([…] at 40× the highest concentration to be tested) were dispensed into the appropriate wells in column 1. The Biomek 2000 was then used to make 2-fold serial dilutions in the mother plates from column 1 through column 11. The wells of Column 12 contained no drug and served as the organism growth control wells for the assay.
as §3, with “185 μL” for “185 g L”, “5 uL” for “5 µL”, “of peptide” for “of drug”, “CLSI methods.” for “CLSI methods (1).”
as §4, with “peptide” for “drug”

[8] = test system: Klebsiella pneumoniae (n = 101); assay type: cell-based
Experimental: as §1

Row | MIC range ([5]; all methicillin-resistant) | SMILES | % R (isolates resistant) [1] | % R (isolates resistant) [2] | % R (isolates resistant) [3] | % R (isolates resistant) [4] | MIC90 [5] | % R (isolates resistant) [5] | % R (isolates resistant) [6] | MIC [7] | % R (isolates resistant) ([5]; listed as levofloxacin) | % R (isolates resistant) ([2]; listed as levofloxacin) | % R (isolates resistant) [8] | % R (isolates resistant) ([8]; Klebsiella pneumoniae (n = 101), CLSI breakpoints, colistin EUCAST)
1 |  | CC(C)(O/N=C(\C(=O)N[C@@H]1C(=O)N2C(C(=O)[O-])=C(C[n+]3ccccc3)CS[C@H]12)c1csc(N)n1)C(=O)O [Ceftazidime] | 36.3% | 33.6% | 61.5% | 14.6% |  |  |  |  |  |  |  | 
2 |  | CCC[C@@H]1C[C@@H](C(=O)N[C@@H]([C@H]2O[C@H](SC)[C@H](O)[C@@H](O)[C@H]2O)[C@H](C)Cl)N(C)C1 [Clindamycin] |  |  |  |  | >16 µg/mL | 37.5% |  |  |  |  |  | 
3 | 0.06 to 8 µg/mL | C[C@H]1c2cccc(O)c2C(=O)C2=C(O)[C@]3(O)C(=O)C(C(N)=O)=C(O)[C@@H](N(C)C)[C@@H]3[C@@H](O)[C@@H]21 [Doxycycline] |  |  |  |  |  | 0% | 25% |  |  |  |  | 
4 |  | C[C@H]1COc2c(N3CCN(C)CC3)c(F)cc3c(=O)c(C(=O)O)cn1c23 [Levofloxacin] | 4.9% | 46.5% | 66.3% | 21.1% | >8 µg/mL | 82.7% |  | 4 µg/mL (≈ 11.1 µM) | Over 80% | ~50% | over 60% | 67.3%
